Results: paper PMC7014271, “Oral Delivery of a Tetrameric Tripeptide Inhibitor of VEGFR1 Suppresses Pathological Choroid Neovascularization” (International Journal of Molecular Sciences, 2020)
Counter-ions that a name gives are not always drawn. Like-named read-outs stand apart in the source and are kept apart here.

Target: T1, VEGF-A/VEGFR1 (recombinant VEGF-A binding to immobilized VEGFR1) (Homo sapiens, UniProt P17948)
T1 construct: purchased R&D Systems
Assay: Competitive ELISA for VEGF-A/VEGFR-1 interaction
Format: biochemical
Method: The competitive ELISA based assay was performed by coating on 96-well plates a recombinant form of VEGFR-1 (R&D Systems, Minneapolis, MN, USA) at 0.5 µg/mL in PBS, 100 µL/well (the same volume was used for all subsequent steps), 16 h at room temperature. The plate was then blocked for 3 h at RT with 1% bovine serum albumin (BSA). Recombinant form of VEGF-A (R&D Systems) at 5 ng/mL in PBS containing 0.1% BSA, 5 mM EDTA, 0.004% Tween 20 (PBET) and 4% DMSO, was added alone or mixed with peptides at a concentration ranging between 0.04 and 100 µM, and incubated for 1 h at 37 °C followed by 1 h at RT. A biotinylated anti VEGF-A polyclonal antibody (R&D Systems) diluted in PBET at 150 ng/mL, was added to the wells and incubated for 1 h at 37 °C followed by 1 h at RT. […] The reaction was blocked by adding 30 µL/well of 4 N H2SO4 and the absorbance measured at 490 nm on a microplate reader (BenchMark, Biorad, Hercules, CA, USA).

[1] = competitive ELISA, VEGFR-1 coated 0.5 µg/mL, VEGF-A 5 ng/mL, peptides 0.04-100 µM, PBET, 4% DMSO, 1 h 37 °C then 1 h RT, absorbance 490 nm, mean of two independent experiments in triplicate, read-out: IC50 of VEGF-A binding to VEGFR1 (concentration at 50% inhibition)

T1 sequence (P17948 27-687 limits assumed, species assumed): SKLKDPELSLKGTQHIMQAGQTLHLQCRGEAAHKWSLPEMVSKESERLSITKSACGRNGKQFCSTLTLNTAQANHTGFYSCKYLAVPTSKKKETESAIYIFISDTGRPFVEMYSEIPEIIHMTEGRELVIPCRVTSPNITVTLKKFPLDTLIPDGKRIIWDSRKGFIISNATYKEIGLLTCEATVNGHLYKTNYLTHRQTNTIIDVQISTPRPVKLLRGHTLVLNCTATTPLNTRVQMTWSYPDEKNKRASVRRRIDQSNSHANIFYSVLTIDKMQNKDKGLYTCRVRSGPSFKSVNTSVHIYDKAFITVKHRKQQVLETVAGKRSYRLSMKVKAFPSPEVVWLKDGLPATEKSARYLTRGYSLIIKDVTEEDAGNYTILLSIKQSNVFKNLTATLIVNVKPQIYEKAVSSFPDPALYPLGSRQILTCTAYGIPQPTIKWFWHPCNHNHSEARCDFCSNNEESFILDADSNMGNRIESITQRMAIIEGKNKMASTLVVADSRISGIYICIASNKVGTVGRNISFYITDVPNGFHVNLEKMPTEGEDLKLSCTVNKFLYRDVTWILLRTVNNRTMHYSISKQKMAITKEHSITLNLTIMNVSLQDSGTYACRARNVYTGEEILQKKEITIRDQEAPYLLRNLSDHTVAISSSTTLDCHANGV

Row | IC50 (acetate counter-ion, VEGF-A/VEGFR1, read-out: IC50 of iVR1 after TFA replaced with acetate (rounded, discussion)) | IC50 [1] | Increase in inhibitory activity (reduction of IC50) upon TFA to acetate exchange (iVR1-Ac vs iVR1-TFA, VEGF-A/VEGFR1 competitive ELISA) | SMILES
1 | < 2000 nM |  |  | N[C@H](CCC(=O)O)C(=O)N[C@@H](CSCc1ccccc1)C(=O)N[C@@H](CC1CCCCC1)C(=O)NCCCC[C@H](NC(=O)[C@H](CC1CCCCC1)NC(=O)[C@H](CSCc1ccccc1)NC(=O)[C@H](N)CCC(=O)O)C(=O)NCCCC[C@H](NC(=O)[C@H](CCCCNC(=O)[C@H](CC1CCCCC1)NC(=O)[C@H](CSCc1ccccc1)NC(=O)[C@H](N)CCC(=O)O)NC(=O)[C@H](CC1CCCCC1)NC(=O)[C@H](CSCc1ccccc1)NC(=O)[C@H](N)CCC(=O)O)C(=O)NCC(=O)O [iVR1, [D-Glu-L-Cys(Bzl)-L-Cha]4-Lys2-Lys-Gly]
2 |  | 9350 nM |  | N[C@H](CCC(=O)O)C(=O)N[C@@H](CSCc1ccccc1)C(=O)N[C@@H](CC1CCCCC1)C(=O)NCCCC[C@H](NC(=O)[C@H](CC1CCCCC1)NC(=O)[C@H](CSCc1ccccc1)NC(=O)[C@H](N)CCC(=O)O)C(=O)NCCCC[C@H](NC(=O)[C@H](CCCCNC(=O)[C@H](CC1CCCCC1)NC(=O)[C@H](CSCc1ccccc1)NC(=O)[C@H](N)CCC(=O)O)NC(=O)[C@H](CC1CCCCC1)NC(=O)[C@H](CSCc1ccccc1)NC(=O)[C@H](N)CCC(=O)O)C(=O)NCC(=O)O [iVR1-TFA, [D-Glu-L-Cys(Bzl)-L-Cha]4-Lys2-Lys-Gly]
3 |  | 1940 nM | about five | N[C@H](CCC(=O)O)C(=O)N[C@@H](CSCc1ccccc1)C(=O)N[C@@H](CC1CCCCC1)C(=O)NCCCC[C@H](NC(=O)[C@H](CC1CCCCC1)NC(=O)[C@H](CSCc1ccccc1)NC(=O)[C@H](N)CCC(=O)O)C(=O)NCCCC[C@H](NC(=O)[C@H](CCCCNC(=O)[C@H](CC1CCCCC1)NC(=O)[C@H](CSCc1ccccc1)NC(=O)[C@H](N)CCC(=O)O)NC(=O)[C@H](CC1CCCCC1)NC(=O)[C@H](CSCc1ccccc1)NC(=O)[C@H](N)CCC(=O)O)C(=O)NCC(=O)O [iVR1-Ac, [D-Glu-L-Cys(Bzl)-L-Cha]4-Lys2-Lys-Gly]
